Assay results published in PubChem BioAssay AID1963840 (Molecular Pharmacology Branch, DTP, NCI, 2024).
Where “and” joins values, the source holds several entries; their conditions need not be identical. Equal entries are not always repeated.

Tested on: 695427-040-R-J1-PDC complex spheroid viability
Assay: Anticancer human tumor 695427-040-R-J1-PDC patient-derived colon adenocarcinoma cell line growth inhibition [POLQ]
Settings: for viability, T/C: stronger effect = lower value
Description: Multicellular complex tumor spheroid response to Polymerase (POL) inhibitors (novobiocin, ART-558, RP6685) in combination with a variety of drugs and investigational agents in selected tumor cell lines
The POL inhibitors (novobiocin, ART-558, and RP6685) were evaluated both individually and in combination with standard of care and investigational anticancer small molecules within a complex spheroid model of solid tumors. . Complex spheroids include a stromal component modeled by human endothelial cells (HUVEC) and fibroblasts modeled by human mesenchymal stem cells (MSCs). The concentration ranges selected for each drug and investigational agent were based upon clinically achievable concentrations if the clinical Cmax of the agent was known.
Compounds. The drugs and investigational agents: novobiocin (NSC847541), ART-558 (NSC835418), RP-6685 (NSC848927), peposertib (NSC802822), ceralasertib (NSC780249), elimusertib (NSC800525), camonsertib (NSC841442), AZD-1390 (NSC803789), olaparib (NSC753686), talazoparib (NSC767125), rucaparib (NSC756644), sotorasib (NSC818433), MRTX-1133 (NSC836407), SN-38 (NSC673596), topotecan (NSC609699), epotoside (NSC141540), doxorubicin (NSC123127), gemcitabine (NSC613327), 5-fluorouracil (NSC19893), paclitaxel (NSC125973), vemurafenib (NSC761431), MSA-2 (NSC828583), SN-011 (NSC837082), adavosertib (NSC754352), prexasertib (NSC758257), carboplatin (NSC241240) and oxaliplatin (NSC266046), were obtained from the National Cancer Institute (NCI) Developmental Therapeutics Program Chemical Repository (21). The FDA-approved anticancer drug set is available from the Developmental Therapeutics Program at https://dtp.cancer.gov/organization/dscb/obtaining/. […] The stock solutions were prepared in dimethyl sulfoxide (DMSO, Sigma-Aldrich, St. Louis, MO, cat. D2650), except for the platinum compounds which were prepared in saline (Quality Biological, Gaithersburg, MD, cat. 114-055-101), at 800-fold the tested concentration and stored at -70 degrees C prior to their use. All drugs and investigational agents were tested over a range starting from a high concentration at or near the clinical Cmax and decreasing in half-log increments. If the clinical Cmax for an agent had not been determined, the highest concentration tested was 10 microM, except for SN-38, which was tested at a high concentration of 1 microM.
Cell Culture. All cells were maintained in an incubator at 37 degrees C and 5% CO2 with 95% humidity. The PDC lines were cultured according to standard operating procedures established by the NCI PDMR (https://pdmr.cancer.gov). Table 3 of the manuscript, lists the cell lines along with the number of the three cell types plated to form the mct-spheroids and media for tumor cell growth. After thawing, all PDC lines, except 997537-175-T-J1-PDC and 415267-285-R-J2-PDC, were cultured in Matrigel-coated flasks prepared with a working solution of 1X Ham's F-12 nutrient mix, without supplementation (Thermo Fisher Scientific, cat. 11765054), 100 U/mL penicillin-streptomycin (Thermo Fisher Scientific, cat. 15140122), and 2.5% Matrigel (Corning Inc., Corning, NY, cat. 354248) for the first three passages. The two PDC lines 997537-175-T-J1-PDC and 415267-285-R-J2-PDC were cultured on uncoated flasks. The 857933-349-R-J2-PDC line was cultured in 6C/Colon 1B media containing advanced DMEM/F-12 (Thermo Fisher Scientific, cat. 12634028), 10 mM HEPES (Thermo Fisher Scientific, cat. 15630080), 1X GlutaMAX supplement (Thermo Fisher Scientific, cat. 35050061), 0.1 mg/mL primocin (InvivoGen, San Diego, CA, cat. ant-pm-2), 10% defined fetal bovine serum, heat inactivated (HyClone Laboratories Inc., Logan, UT, cat. SH30070.03HI), 50% L-WRN conditioned media (ATCC, cat. CRL-3276), 1.25 mM N-Acetyl-L-cysteine (Sigma-Aldrich, cat. A9165), 10 mM nicotinamide (Sigma-Aldrich, cat. N0636), 1X B-27 supplement (Thermo Fisher Scientific, cat. 17504044), 1X N-2 supplement (Thermo Fisher Scientific, cat. […]
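Further: spheroids exposed to compounds for seven days.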
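Wherever viability, T/C is given: 100% = DMSO vehicle control viability.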

SMILES: COc1cc(C2c3cc4c(cc3C(OC3OC5COC(C)OC5C(O)C3O)C3COC(=O)C23)OCO4)cc(OC)c1O (configuration not stated) + COC1C(OC(N)=O)C(O)C(Oc2ccc3c(O)c(NC(=O)c4ccc(O)c(CC=C(C)C)c4)c(=O)oc3c2C)OC1(C)C
- IC50 (curve of first compound, second compound 0.0316 µM): > 10 µM
- IC50 (curve of first compound, second compound 0.1 µM): > 10 µM
- IC50 (curve of first compound, second compound 0.316 µM): > 10 µM
- IC50 (curve of first compound, second compound 1 µM): > 10 µM
- IC50 (curve of first compound, second compound 3.16 µM): > 10 µM
- IC50 (curve of first compound, second compound 10 µM): > 10 µM
- viability, T/C (second compound 0.0316 µM, first compound 0.0316 µM): 96.7%
- viability, T/C (second compound 0.0316 µM, first compound 0.1 µM): 92.3%
- viability, T/C (second compound 0.0316 µM, first compound 0.316 µM): 98.8%
- viability, T/C (second compound 0.0316 µM, first compound 1 µM): 96.2%
- viability, T/C (second compound 0.0316 µM, first compound 3.16 µM): 98.4%
- viability, T/C (second compound 0.0316 µM, first compound 10 µM): 82.4%
- viability, T/C (second compound 0.1 µM, first compound 0.0316 µM): 101%
- viability, T/C (second compound 0.1 µM, first compound 0.1 µM): 93.4%
- viability, T/C (second compound 0.1 µM, first compound 0.316 µM): 101%
- viability, T/C (second compound 0.1 µM, first compound 1 µM): 93.8%
- viability, T/C (second compound 0.1 µM, first compound 3.16 µM): 99.5%
- viability, T/C (second compound 0.1 µM, first compound 10 µM): 83.6%
- viability, T/C (second compound 0.316 µM, first compound 0.0316 µM): 104%
- viability, T/C (second compound 0.316 µM, first compound 0.1 µM): 92.3%
- viability, T/C (second compound 0.316 µM, first compound 0.316 µM): 94.7%
- viability, T/C (second compound 0.316 µM, first compound 1 µM): 97%
- viability, T/C (second compound 0.316 µM, first compound 3.16 µM): 95.3%
- viability, T/C (second compound 0.316 µM, first compound 10 µM): 80.6%
- viability, T/C (second compound 1 µM, first compound 0.0316 µM): 107%
- viability, T/C (second compound 1 µM, first compound 0.1 µM): 98.5%
- viability, T/C (second compound 1 µM, first compound 0.316 µM): 112%
- viability, T/C (second compound 1 µM, first compound 1 µM): 100%
- viability, T/C (second compound 1 µM, first compound 3.16 µM): 96.4%
- viability, T/C (second compound 1 µM, first compound 10 µM): 83.7%
- viability, T/C (second compound 3.16 µM, first compound 0.0316 µM): 99.4%
- viability, T/C (second compound 3.16 µM, first compound 0.1 µM): 98.3%
- viability, T/C (second compound 3.16 µM, first compound 0.316 µM): 101%
- viability, T/C (second compound 3.16 µM, first compound 1 µM): 101%
- viability, T/C (second compound 3.16 µM, first compound 3.16 µM): 98.9%
- viability, T/C (second compound 3.16 µM, first compound 10 µM): 82.8%
- viability, T/C (second compound 10 µM, first compound 0.0316 µM): 94.5%
- viability, T/C (second compound 10 µM, first compound 0.1 µM): 95.2%
- viability, T/C (second compound 10 µM, first compound 0.316 µM): 95.3%
- viability, T/C (second compound 10 µM, first compound 1 µM): 99.9%
- viability, T/C (second compound 10 µM, first compound 3.16 µM): 103%
- viability, T/C (second compound 10 µM, first compound 10 µM): 83.2%

SMILES: CC(=O)O[C@H]1C(=O)[C@@]2(C)[C@H]([C@H](OC(=O)c3ccccc3)[C@]3(O)C[C@H](OC(=O)[C@H](O)[C@@H](NC(=O)c4ccccc4)c4ccccc4)C(C)=C1C3(C)C)[C@]1(OC(C)=O)CO[C@@H]1C[C@@H]2O
- viability, T/C (compound 0.00949 µM): 93.8% and 92.4% and 99.8%
- viability, T/C (compound 0.03 µM): 86.1% and 95.4% and 86.8%
- viability, T/C (compound 0.0949 µM): 91.8% and 101% and 86.8%
- viability, T/C (compound 0.3 µM): 90.8% and 96.8% and 89.7%
- viability, T/C (compound 0.949 µM): 102% and 98.8% and 82.3%
- viability, T/C (compound 3 µM): 84.5% and 89.3% and 74.2%
- IC50 (curve of compound): > 3 µM

SMILES: C=CCn1c(=O)c2cnc(Nc3ccc(N4CCN(C)CC4)cc3)nc2n1-c1cccc(C(C)(C)O)n1
- viability, T/C (compound 0.00316 µM): 99.5% and 88.8% and 103%
- viability, T/C (compound 0.01 µM): 90.1% and 92% and 91.7%
- viability, T/C (compound 0.0316 µM): 98.5% and 104% and 103%
- viability, T/C (compound 0.1 µM): 103% and 99.2% and 95.7%
- viability, T/C (compound 0.316 µM): 86.5% and 95.4% and 93.7%
- viability, T/C (compound 1 µM): 77.5% and 73.7% and 82%
- IC50 (curve of compound): > 1 µM

SMILES: CCc1c2c(nc3ccc(O)cc13)-c1cc3c(c(=O)n1C2)COC(=O)[C@]3(O)CC
- viability, T/C (compound 0.00316 µM): 92.3% and 98.2% and 97%
- viability, T/C (compound 0.01 µM): 79.9% and 89.2% and 92.2%
- viability, T/C (compound 0.0316 µM): 76.8% and 99.3% and 92.6%
- viability, T/C (compound 0.1 µM): 77.9% and 90.7% and 82.1%
- viability, T/C (compound 0.316 µM): 65.9% and 87.4% and 76%
- viability, T/C (compound 1 µM): 49.6% and 66.4% and 51.3%
- IC50 (curve of compound): > 1 µM

SMILES: Cn1ncnc1[C@H]1c2n[nH]c(=O)c3cc(F)cc(c23)N[C@@H]1c1ccc(F)cc1
- viability, T/C (compound 0.000316 µM): 105% and 96.4% and 102%
- viability, T/C (compound 0.001 µM): 97.7% and 91% and 93.6%
- viability, T/C (compound 0.00316 µM): 109% and 102% and 99.2%
- viability, T/C (compound 0.01 µM): 101% and 109% and 104%
- viability, T/C (compound 0.0316 µM): 106% and 113% and 101%
- viability, T/C (compound 0.1 µM): 89.5% and 97.1% and 94.2%
- IC50 (curve of compound): > 0.1 µM

SMILES: COc1cccc(OCCCN)c1-c1cc(Nc2cnc(C#N)cn2)n[nH]1
- viability, T/C (compound 0.00316 µM): 94.2% and 94.8% and 102%
- viability, T/C (compound 0.01 µM): 84.4% and 93.3% and 91.1%
- viability, T/C (compound 0.0316 µM): 80.9% and 87.1% and 92.6%
- viability, T/C (compound 0.1 µM): 76% and 75.7% and 85.2%
- viability, T/C (compound 0.316 µM): 53.1% and 74.3% and 72.6%
- viability, T/C (compound 1 µM): 37.3% and 50.5% and 55.4%
- IC50 (curve of compound): 0.448 µM and > 1 µM
